Results from patent US9474790B2, “Stable, protracted GLP-1/glucagon receptor co-agonists for medical use” (Novo Nordisk A/S, priority 2013, dated 2016).
Numbered stars: 1 amine (or outer) side, 2 acyl side, 3 side chain; on linkers, the order of the positions; unused ones are H or OH. Bridge positions count the residues as written; N and C are the ends. Square brackets hold non-standard residues; d marks the D form. Side chains are listed from the residue outwards. Peptide text beside a SMILES is read from it. I, II: the chains in the order shown. * marks the point of attachment. C18 diacid = O=C(O)CCCCCCCCCCCCCCCCC(=O)*; γGlu = O=C(O)[C@H](CCC(=O)[*:2])N[*:1]; AEEA = NCCOCCOCC(=O)O; Aib = CC(C)(N)C(=O)O

Assays:
human GLP-1 receptor = target: T1, human GLP-1 receptor (Homo sapiens, UniProt P43220); experiment: GLP-1 receptor potency, CRE luciferase reporter gene assay in BHK cells; format: cell-based; conditions: BHK cells expressing human GLP-1 receptor, read-out: EC50 GLP-1R
T1 construct: expressed in transfected cells; host or cells: BHK cells (parent BHKTS13), clone FCW467-12A/KZ10-1, with CRE luciferase
Procedure, shortened: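 BHK cells stably expressing human GLP-1 receptor with CRE-luciferase reporter, 5×10EE3 cells/well in phenol red-free DMEM with 10 mM Hepes, 2% ovalbumin, 0.2% Pluronic F-68. Compounds at final 1×10EE-6 to 1×10EE-13 M, 3 h at 37° C; steadylite luminescence; EC50 by four-parameter fit, in pM.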

[1] = Thioflavin T (ThT) fibrillation assay for physical stability; format: physicochemical; conditions: 250 μM in 10 mM HEPES buffer, pH 7.5, 37° C., shaking 960 rpm
Procedure, shortened: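 Peptide at 250 μM in 10 mM HEPES pH 7.5 with 1 μM ThT, at 37° C with 960 rpm orbital shaking. Fluorescence (ex 444/em 485 nm) read every 20 min after 10 min pre-incubation; sigmoidal fit gives lag time (t0−2τ) and kapp (1/τ). Recovery is RP-HPLC peptide in the centrifuged, 0.22 μm-filtered supernatant as % of initial.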

T1 sequence (P43220 24-463): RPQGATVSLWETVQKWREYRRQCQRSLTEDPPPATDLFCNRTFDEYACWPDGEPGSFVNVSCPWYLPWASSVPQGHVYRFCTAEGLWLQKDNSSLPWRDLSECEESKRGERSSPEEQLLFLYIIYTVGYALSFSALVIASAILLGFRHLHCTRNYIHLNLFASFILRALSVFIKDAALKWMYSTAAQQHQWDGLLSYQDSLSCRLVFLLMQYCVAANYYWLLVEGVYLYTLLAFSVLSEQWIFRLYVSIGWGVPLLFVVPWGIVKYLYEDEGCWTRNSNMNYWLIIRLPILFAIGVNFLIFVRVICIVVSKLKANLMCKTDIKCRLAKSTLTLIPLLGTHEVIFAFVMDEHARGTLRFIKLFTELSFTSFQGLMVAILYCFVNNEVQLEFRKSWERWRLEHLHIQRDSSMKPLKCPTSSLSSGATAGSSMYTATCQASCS

EC50 (human GLP-1 receptor) [pM] | THT assay Lag time (Ex. 76) [1] [h] | SMILES
4 | 45 | CC(C)C[C@H](NC(=O)[C@H](Cc1ccc(O)cc1)NC(=O)[C@H](CCCCN)NC(=O)[C@H](CO)NC(=O)[C@H](CC(C)C)NC(=O)[C@H](CC(=O)O)NC(=O)[C@H](CO)NC(=O)[C@@H](NC(=O)[C@H](Cc1ccccc1)NC(=O)[C@@H](NC(=O)CNC(=O)[C@H](Cc1c[nH]cn1)NC(=O)C(C)(C)NC(=O)[C@@H](N)Cc1c[nH]cn1)[C@@H](C)O)[C@@H](C)O)C(=O)N[C@@H](CCC(=O)O)C(=O)N[C@@H](CO)C(=O)N[C@@H](CCCNC(=N)N)C(=O)N[C@@H](CCCNC(=N)N)C(=O)N[C@@H](C)C(=O)N[C@@H](CCCNC(=N)N)C(=O)N[C@@H](CC(=O)O)C(=O)N[C@@H](Cc1ccccc1)C(=O)N[C@H](C(=O)N[C@@H](CCC(N)=O)C(=O)N[C@@H](Cc1c[nH]c2ccccc12)C(=O)N[C@@H](CC(C)C)C(=O)N[C@@H](CC(C)C)C(=O)N[C@@H](CCCCNC(=O)CNC(=O)[C@H](CO)NC(=O)[C@H](CCC(=O)O)NC(=O)CNC(=O)[C@H](CO)NC(=O)CC[C@H](NC(=O)CC[C@H](NC(=O)CCCCCCCCCCCCCCCCC(=O)O)C(=O)O)C(=O)O)C(=O)N[C@H](C(N)=O)[C@@H](C)O)C(C)C [Example 37, N^ε28-[2-[[(2S)-2-[[(2S)-4-carboxy-2-[[2-[[(2S)-2-[[(4S)-4-carboxy-4-[[(4S)-4-carboxy-4-(17-carboxyheptadecanoylamino)butanoyl]amino]butanoyl]amino]-3-hydroxypropanoyl]amino]acetyl]amino]butanoyl]amino]-3-hydroxypropanoyl]amino]acetyl]-[Aib2,His3,Leu10,Glu15, Arg20,Leu27,Lys28]-Glucagon amide] (I: H-H[Aib]HGTFTSDLSKYLESRRARDFVQWLLKT-NH2 / II: {C18 diacid-γGlu-γGlu}-SGESG; amide I:28-II:C; N-terminus assumed)
4 | 45 | CC(C)C[C@H](NC(=O)[C@H](Cc1ccc(O)cc1)NC(=O)[C@H](CCCCN)NC(=O)[C@H](CO)NC(=O)[C@H](CC(C)C)NC(=O)[C@H](CC(=O)O)NC(=O)[C@H](CO)NC(=O)[C@@H](NC(=O)[C@H](Cc1ccccc1)NC(=O)[C@@H](NC(=O)CNC(=O)[C@H](CCC(N)=O)NC(=O)C(C)(C)NC(=O)[C@@H](N)Cc1c[nH]cn1)[C@@H](C)O)[C@@H](C)O)C(=O)N[C@@H](CC(=O)O)C(=O)N[C@@H](C)C(=O)N[C@@H](CCCNC(=N)N)C(=O)N[C@@H](CCCNC(=N)N)C(=O)N[C@@H](C)C(=O)N[C@@H](CCCNC(=N)N)C(=O)N[C@@H](CCC(=O)O)C(=O)N[C@@H](Cc1ccccc1)C(=O)N[C@H](C(=O)N[C@@H](CCC(N)=O)C(=O)N[C@@H](Cc1c[nH]c2ccccc12)C(=O)N[C@@H](CC(C)C)C(=O)N[C@@H](CC(C)C)C(=O)N[C@@H](CC(N)=O)C(=O)N[C@@H](CCCCNC(=O)CC[C@H](NC(=O)CC[C@H](NC(=O)COCCOCCNC(=O)CC[C@H](NC(=O)CCCCCCCCCCCCCCCCC(=O)O)C(=O)O)C(=O)O)C(=O)O)C(N)=O)C(C)C [Example 39, N^ε29-[(4S)-4-carboxy-4-[[(4S)-4-carboxy-4-[[2-[2-[2-[[(4S)-4-carboxy-4-(17-carboxyheptadecanoylamino)butanoyl]amino]ethoxy]ethoxy]acetyl]amino]butanoyl]amino]butanoyl]-[Aib2,Leu10,Ala16,Arg20,Glu21,Leu27,Lys29]-Glucagon amide] (H-H[Aib]QGTFTSDLSKYLDARRAREFVQWLLNK([γGlu-γGlu-AEEA-γGlu-C18 diacid])-NH2; N-terminus assumed)
4 | 40 | CC(C)C[C@H](NC(=O)[C@H](CC(C)C)NC(=O)[C@H](Cc1c[nH]c2ccccc12)NC(=O)[C@H](CCC(N)=O)NC(=O)[C@@H](NC(=O)[C@H](Cc1ccccc1)NC(=O)[C@H](CCC(=O)O)NC(=O)[C@H](CCCNC(=N)N)NC(=O)[C@H](C)NC(=O)[C@H](CCCNC(=N)N)NC(=O)[C@H](CCCNC(=N)N)NC(=O)[C@H](CO)NC(=O)[C@H](CCC(=O)O)NC(=O)[C@H](CC(C)C)NC(=O)[C@H](Cc1ccc(O)cc1)NC(=O)[C@H](CCCCN)NC(=O)[C@H](CO)NC(=O)[C@H](CC(C)C)NC(=O)[C@H](CC(=O)O)NC(=O)[C@H](CO)NC(=O)[C@@H](NC(=O)[C@H](Cc1ccccc1)NC(=O)[C@@H](NC(=O)CNC(=O)[C@H](CCC(N)=O)NC(=O)C(C)(C)NC(=O)[C@@H](N)Cc1c[nH]cn1)[C@@H](C)O)[C@@H](C)O)C(C)C)C(=O)N[C@@H](CC(N)=O)C(=O)N[C@@H](CCCCNC(=O)CC[C@H](NC(=O)CC[C@H](NC(=O)COCCOCCNC(=O)CC[C@H](NC(=O)CCCCCCCCCCCCCCCCC(=O)O)C(=O)O)C(=O)O)C(=O)O)C(N)=O [Example 40, N^ε29-[(4S)-4-carboxy-4-[[(4S)-4-carboxy-4-[[2-[2-[2-[[(4S)-4-carboxy-4-(17-carboxyheptadecanoylamino)butanoyl]amino]ethoxy]ethoxy]acetyl]amino]butanoyl]amino]butanoyl]-[Aib2,Leu10,Glu15,Arg20,Glu21,Leu27,Lys29]-Glucagon amide] (H-H[Aib]QGTFTSDLSKYLESRRAREFVQWLLNK([γGlu-γGlu-AEEA-γGlu-C18 diacid])-NH2; N-terminus assumed)
7 | 45 | CC(C)C[C@H](NC(=O)[C@H](Cc1ccc(O)cc1)NC(=O)[C@H](CCCCN)NC(=O)[C@H](CO)NC(=O)[C@H](CC(C)C)NC(=O)[C@H](CC(=O)O)NC(=O)[C@H](CO)NC(=O)[C@@H](NC(=O)[C@H](Cc1ccccc1)NC(=O)[C@@H](NC(=O)CNC(=O)[C@H](CCC(N)=O)NC(=O)C(C)(C)NC(=O)[C@@H](N)Cc1c[nH]cn1)[C@@H](C)O)[C@@H](C)O)C(=O)N[C@@H](CCC(=O)O)C(=O)N[C@@H](CO)C(=O)N[C@@H](CCCNC(=N)N)C(=O)N[C@@H](CCCNC(=N)N)C(=O)N[C@@H](C)C(=O)N[C@@H](CCCNC(=N)N)C(=O)N[C@@H](CCC(=O)O)C(=O)N[C@@H](Cc1ccccc1)C(=O)N[C@H](C(=O)N[C@@H](CCC(N)=O)C(=O)N[C@@H](Cc1c[nH]c2ccccc12)C(=O)N[C@@H](CC(C)C)C(=O)N[C@@H](CC(C)C)C(=O)N[C@@H](CCCCNC(=O)CC[C@H](NC(=O)CC[C@H](NC(=O)CC[C@H](NC(=O)CCCCCCCCCCCCCCCCC(=O)O)C(=O)O)C(=O)O)C(=O)O)C(=O)N[C@H](C(N)=O)[C@@H](C)O)C(C)C [Example 41, N^ε28-[(4S)-4-carboxy-4-[[(4S)-4-carboxy-4-[[(4S)-4-carboxy-4-(17-carboxyheptadecanoylamino)butanoyl]amino]butanoyl]amino]butanoyl]-[Aib2,Leu10,Glu15, Arg20,Glu21,Leu27,Lys28]-Glucagon amide] (H-H[Aib]QGTFTSDLSKYLESRRAREFVQWLLK([γGlu-γGlu-γGlu-C18 diacid])T-NH2; N-terminus assumed)
3 | 45 | CC(C)C[C@H](NC(=O)[C@H](Cc1ccc(O)cc1)NC(=O)[C@H](CCCCN)NC(=O)[C@H](CO)NC(=O)[C@H](CC(C)C)NC(=O)[C@H](CC(=O)O)NC(=O)[C@H](CO)NC(=O)[C@@H](NC(=O)[C@H](Cc1ccccc1)NC(=O)[C@@H](NC(=O)CNC(=O)[C@H](CCC(N)=O)NC(=O)C(C)(C)NC(=O)[C@@H](N)Cc1c[nH]cn1)[C@@H](C)O)[C@@H](C)O)C(=O)N[C@@H](CCC(=O)O)C(=O)N[C@@H](CO)C(=O)N[C@@H](CCCNC(=N)N)C(=O)N[C@@H](CCCNC(=N)N)C(=O)N[C@@H](C)C(=O)N[C@@H](CCCNC(=N)N)C(=O)N[C@@H](CCC(=O)O)C(=O)N[C@@H](Cc1ccccc1)C(=O)N[C@H](C(=O)N[C@@H](CCC(N)=O)C(=O)N[C@@H](Cc1c[nH]c2ccccc12)C(=O)N[C@@H](CC(C)C)C(=O)N[C@@H](CC(C)C)C(=O)N[C@@H](CCCCNC(=O)COCCOCCNC(=O)COCCOCCNC(=O)CC[C@H](NC(=O)CC[C@H](NC(=O)CC[C@H](NC(=O)CCCCCCCCCCCCCCCCC(=O)O)C(=O)O)C(=O)O)C(=O)O)C(=O)N[C@H](C(N)=O)[C@@H](C)O)C(C)C [Example 42, N^ε28-[2-[2-[2-[[2-[2-[2-[[(4S)-4-carboxy-4-[[(4S)-4-carboxy-4-[[(4S)-4-carboxy-4-(17-carboxyheptadecanoylamino)butanoyl]amino]butanoyl]amino]butanoyl]amino]ethoxy]ethoxy]acetyl]amino]ethoxy]ethoxy]acetyl]-[Aib2,Leu10,Glu15,Arg20,Glu21,Leu27,Lys28]-Glucagon amide] (H-H[Aib]QGTFTSDLSKYLESRRAREFVQWLLK([AEEA-AEEA-γGlu-γGlu-γGlu-C18 diacid])T-NH2; N-terminus assumed)
